Results taken from patent US20100204508A1, “DENDRITIC COMPOUND AND USE THEREOF” (Industrial Technology Research Institute, priority 2004, published 2010).

Assays:
[1] = magnetizing relaxation rate via NMR (R1, R2); type: physicochemical; details: B0 = 0.47 T, vertical relative relaxation
[2] = B0 = 1.0T; cited from earlier work

R1(20 MHz) [1]: 6.14
Structure (SMILES): CNC[C@H](O)[C@@H](O)[C@H](O)[C@H](O)CO.CNC[C@H](O)[C@@H](O)[C@H](O)[C@H](O)CO.O=C([O-])CN(CCN(CC(=O)[O-])CC(=O)O)CCN(CC(=O)[O-])CC(=O)O.[Gd+3] [Magnevist ™]
R1 (Literature) [2]: R1 = 3.4
